In brackets after ≈: the same amount, converted by molar mass. Read-outs that look alike come from different tables or passages of the source.
Key:
[1] = tested on: red blood cells (RBC) of the ABO system; test: Antihemolytic activity (osmotic fragility); assay type: cell-based, human; settings: 0.24% NaCl
Protocol: The tests were performed according to the recommendations established by the Code of Ethics of the World Medical Association, after approval by the ethics committee of the Centro Universitário de Patos (number: 3621284). Blood samples (types A, B, and O) and smears of oral mucosa were donated by young, healthy adults.
The analysis of the osmotic fragility of the red cells was performed using previously prepared red blood cell suspensions at 0.5%. Different concentrations (50, 100, 500, and 1000 µg/mL) of the A2 substance were used for the treatment of 0.5% RBC suspensions for 1h at 22 ± 2 °C. The samples were centrifuged at 2500 rpm for 5 min and the supernatant was discarded. The erythrocytes were resuspended in a hypotonic solution of 0.24% sodium chloride for one hour at 22 ± 2 °C. After this period, the samples were centrifuged at 700× g for 5 min and the hemolysis of the supernatant was quantified by spectrophotometry at 540 nm. As controls, a suspension of untreated red blood cells was used as a negative control (0% hemolysis) and in a hypotonic solution as a positive control (100% hemolysis).

[2] = tested on: K. pneumoniae strains; test: Minimum inhibitory concentration (MIC), broth microdilution; assay type: cell-based, Klebsiella pneumoniae
Protocol: The clinical isolates strains of K. pneumoniae were used in this study belong to the MICOTECA of the Antibacterial and Antifungal Activity Research Laboratory of the Federal University of Paraíba, Brazil, which are: KP-25, KP-26, KP-56, KP-83, KP-87, KP-138, KP-143, KP-166, KP-173, KP-176, KP-260, and KP-326. The American Type Culture Collection strain ATCC-700603 was used as controls. For use in the assays, bacterial suspensions were prepared in 0.9% saline solution, from fresh cultures, and adjusted to the McFarland standard 0.5 scale.
To assess the antibacterial activity of substances A1 and A2, the minimum inhibitory concentration against K. pneumoniae strains was determined. The substances were solubilized in dimethyl sulfoxide (DMSO) at 5% and Tween-80 at 2%, to obtain emulsions in the concentrations necessary for use in the tests. The MIC determination was performed using the broth microdilution technique in a 96-well plate to obtain different concentrations of A1 and A2 [35]. In parallel, controls for sterility, cell viability, and interference of the vehicles used in the preparation of substance emulsions (DMSO and Tween-80) were also performed. MIC is defined as the lowest concentration capable of causing complete inhibition of bacterial growth after 24 h at 35 ± 2 °C.

[3] = tested on: K. pneumoniae (ATCC-700603 and KP-56); test: Time-kill kinetics; assay type: cell-based, Klebsiella pneumoniae
Protocol: The determination of the action time of A2 substance against K. pneumoniae (ATCC-700603 and KP-56) was carried out exposing the microorganisms to concentrations equivalent to MIC and 2× MIC during times 0, 2, 4, 6, 8, 10, and 24 h. After incubation on Mueller–Hinton agar, bacterial colonies were counted. Bactericidal activity was defined as a ≥3-log reduction in bacterial counts (log10 CFU/mL).

MIC ([2]; Klebsiella pneumoniae, ATCC700603, strain ATCC-700603, 24 h at 35 ± 2 °C, read-out: MIC): 512 µg/mL (≈ 2200 µM) | MIC ([2]; Klebsiella pneumoniae, 100% of the K. pneumoniae strains used in this study, read-out: MIC): 512 µg/mL (≈ 2200 µM) | MIC ([2]; Klebsiella pneumoniae, strain KP-138, 24 h at 35 ± 2 °C, read-out: MIC): 512 µg/mL (≈ 2200 µM) | MIC ([2]; strain KP-25, 24 h at 35 ± 2 °C): 512 µg/mL (≈ 2200 µM) | MIC ([2]; strain KP-26, 24 h at 35 ± 2 °C): 512 µg/mL (≈ 2200 µM) | MIC ([2]; strain KP-56, 24 h at 35 ± 2 °C): 512 µg/mL (≈ 2200 µM) | MIC ([2]; strain KP-83, 24 h at 35 ± 2 °C): 512 µg/mL (≈ 2200 µM) | MIC ([2]; strain KP-87, 24 h at 35 ± 2 °C): 512 µg/mL (≈ 2200 µM) | MIC ([2]; strain KP-143, 24 h at 35 ± 2 °C): 512 µg/mL (≈ 2200 µM) | MIC ([2]; strain KP-166, 24 h at 35 ± 2 °C): 512 µg/mL (≈ 2200 µM) | MIC ([2]; strain KP-173, 24 h at 35 ± 2 °C): 512 µg/mL (≈ 2200 µM) | MIC ([2]; strain KP-176, 24 h at 35 ± 2 °C): 512 µg/mL (≈ 2200 µM) | MIC ([2]; strain KP-260, 24 h at 35 ± 2 °C): 512 µg/mL (≈ 2200 µM) | MIC ([2]; strain KP-326, 24 h at 35 ± 2 °C): 512 µg/mL (≈ 2200 µM)
Compound: O=C(CCl)Nc1ccc(F)c([N+](=O)[O-])c1 [A2, 2-chloro-N-(4-fluoro-3-nitrophenyl)acetamide]
percentage of hemolysis in hypotonic solution (anti-hemolytic evaluation) ([1]; 1000 µg/mL, type B red blood cells): > 80% | percentage of hemolysis in hypotonic solution (anti-hemolytic evaluation), class ([1]; all concentrations (50–1000 µg/mL), three ABO blood types, except 1000 µg/mL in type B): moderate (moderate (40% and 80%)) | time of treatment to total reduction of viable cells ([3]; A2 at 2× MIC): 6 h | time of treatment to total reduction of viable cells ([3]; A2 at MIC): 10 h

From paper PMC7504751, “Potential of 2-Chloro-N-(4-fluoro-3-nitrophenyl)acetamide Against Klebsiella pneumoniae and In Vitro Toxicity Analysis” (Molecules, 2020)
